Source: paper PMC5218480 (PLoS ONE, 2017)

Tested on: MV-4-11 cells
Assay: Gene expression microarray analysis (Affymetrix PrimeView) and GSEA
Format: cell-based, human
Design: RFU PODN (11730768_x_at) / Fold change /veh PODN (11730768_x_at) / RFU LINC00158 (11744669_a_at) / Fold change /veh LINC00158 (11744669_a_at) / RFU DUSP10 (11751237_a_at) / Fold change /veh DUSP10 (11751237_a_at) / RFU ID3 (11757404_x_at) / Fold change /veh ID3 (11757404_x_at) / RFU PLEKHG5 (11737974_s_at) / Fold change /veh PLEKHG5 (11737974_s_at) / RFU LRRC4B (11730491_at) / Fold change /veh LRRC4B (11730491_at) / RFU GIMAP4 (11747438_a_at) / Fold change /veh GIMAP4 (11747438_a_at) / RFU KRT8 (11758183_x_at) / Fold change /veh KRT8 (11758183_x_at) / RFU CNN1 (11734310_a_at) / Fold change /veh CNN1 (11734310_a_at) / RFU VPS37D (11726825_at) / Fold change /veh VPS37D (11726825_at) / RFU C10orf10 (11716522_x_at) / Fold change /veh C10orf10 (11716522_x_at) / RFU KIR2DL2 /// KIR2DL4 /// KIR2DL5A /// KIR2DL5B /// KIR2DS1 /// KIR2DS2 /// KIR2DS3 /// KIR2DS4 /// KIR3DL3 /// KIR3DL3 /// KIR3DS1 (11738374_at) / Fold change /veh KIR2DL2 /// KIR2DL4 /// KIR2DL5A /// KIR2DL5B /// KIR2DS1 /// KIR2DS2 /// KIR2DS3 /// KIR2DS4 /// KIR3DL3 /// KIR3DL3 /// KIR3DS1 (11738374_at) / RFU C1QL1 (11718748_at) / Fold change /veh C1QL1 (11718748_at) / RFU TMPRSS4 (11747572_a_at) / Fold change /veh TMPRSS4 (11747572_a_at) / RFU HAMP (11756126_x_at) / Fold change /veh HAMP (11756126_x_at) / RFU RNFT2 (11725882_a_at) / Fold change /veh RNFT2 (11725882_a_at) / RFU NR4A2 (11747474_a_at) / Fold change /veh NR4A2 (11747474_a_at) / RFU ABCC12 (11746883_a_at) / Fold change /veh ABCC12 (11746883_a_at) / RFU TMEM136 (11760407_x_at) / Fold change /veh TMEM136 (11760407_x_at) / RFU CLDN22 /// WWC2 (11732394_at) / Fold change /veh CLDN22 /// WWC2 (11732394_at) / RFU HLA-DPB1 (11760878_x_at) / Fold change /veh HLA-DPB1 (11760878_x_at) / RFU SPINT1 (11716480_a_at) / Fold change /veh SPINT1 (11716480_a_at) / RFU GAP43 (11754022_s_at) / Fold change /veh GAP43 (11754022_s_at) / RFU A4GNT (11735810_at) / Fold change /veh A4GNT (11735810_at) / RFU PRB3 (11715151_x_at) / Fold change /veh PRB3 (11715151_x_at) / RFU TUBB4B (11761932_at) / Fold change /veh TUBB4B (11761932_at) / RFU CAPN14 (11732068_a_at) / Fold change /veh CAPN14 (11732068_a_at) / RFU TMCC2 (11721928_a_at) / Fold change /veh TMCC2 (11721928_a_at) / RFU IRGQ (11745062_a_at) / Fold change /veh IRGQ (11745062_a_at) / RFU FAM174B (11720279_a_at) / Fold change /veh FAM174B (11720279_a_at) / RFU TMPRSS4 (11748680_a_at) / Fold change /veh TMPRSS4 (11748680_a_at) / RFU FAM212B (11763350_a_at) / Fold change /veh FAM212B (11763350_a_at) / RFU PLEKHG5 (11743358_a_at) / Fold change /veh PLEKHG5 (11743358_a_at) / RFU ZSCAN30 (11745921_a_at) / Fold change /veh ZSCAN30 (11745921_a_at) / RFU CMKLR1 (11741424_a_at) / Fold change /veh CMKLR1 (11741424_a_at) / RFU LOC101060620 /// MAPK8IP1 (11723275_at) / Fold change /veh LOC101060620 /// MAPK8IP1 (11723275_at) / RFU SPTSSB (11747773_x_at) / Fold change /veh SPTSSB (11747773_x_at) / RFU PRSS12 (11739890_at) / Fold change /veh PRSS12 (11739890_at) / RFU BIN1 (11741810_x_at) / Fold change /veh BIN1 (11741810_x_at) / RFU WNT11 (11732464_a_at) / Fold change /veh WNT11 (11732464_a_at) / RFU C10orf10 (11716521_a_at) / Fold change /veh C10orf10 (11716521_a_at) / RFU C5orf56 (11738089_at) / Fold change /veh C5orf56 (11738089_at) / RFU CYB561 (11721691_x_at) / Fold change /veh CYB561 (11721691_x_at) / RFU ANKRD19P (11752326_a_at) / Fold change /veh ANKRD19P (11752326_a_at) / RFU OR2T12 /// OR2T33 /// OR2T8 (11738714_s_at) / Fold change /veh OR2T12 /// OR2T33 /// OR2T8 (11738714_s_at) / RFU VCAN (11748164_a_at) / Fold change /veh VCAN (11748164_a_at) / RFU JSRP1 (11732532_at) / Fold change /veh JSRP1 (11732532_at) / RFU KRTAP10-11 (11738290_x_at) / Fold change /veh KRTAP10-11 (11738290_x_at) / RFU MYO3A (11730013_a_at) / Fold change /veh MYO3A (11730013_a_at) / RFU EBF3 (11725865_a_at) / Fold change /veh EBF3 (11725865_a_at) / RFU CAMK2N1 (11719241_x_at) / Fold change /veh CAMK2N1 (11719241_x_at) / RFU C5orf56 (11738088_a_at) / Fold change /veh C5orf56 (11738088_a_at) / RFU OLFML3 (11715873_a_at) / Fold change /veh OLFML3 (11715873_a_at) / RFU LOC100653217 /// NTM (11731650_a_at) / Fold change /veh LOC100653217 /// NTM (11731650_a_at) / RFU MAPK11 (11762145_a_at) / Fold change /veh MAPK11 (11762145_a_at) / RFU FIZ1 (11724087_x_at) / Fold change /veh FIZ1 (11724087_x_at) / RFU OASL (11726364_x_at) / Fold change /veh OASL (11726364_x_at) / RFU SOX15 (11748057_x_at) / Fold change /veh SOX15 (11748057_x_at) / RFU CD79A (11719716_a_at) / Fold change /veh CD79A (11719716_a_at) / RFU HIST1H1D (11736915_at) / Fold change /veh HIST1H1D (11736915_at) / RFU CASKIN2 (11723855_a_at) / Fold change /veh CASKIN2 (11723855_a_at) / RFU LOC730098 (11760151_x_at) / Fold change /veh LOC730098 (11760151_x_at) / RFU OR4N2 (11742367_at) / Fold change /veh OR4N2 (11742367_at) / RFU PRRT2 (11749266_a_at) / Fold change /veh PRRT2 (11749266_a_at) / RFU SNX32 (11753110_a_at) / Fold change /veh SNX32 (11753110_a_at) / RFU CDHR5 (11726645_a_at) / Fold change /veh CDHR5 (11726645_a_at) / RFU RCAN1 (11760418_a_at) / Fold change /veh RCAN1 (11760418_a_at) / RFU FAM167A (11723789_a_at) / Fold change /veh FAM167A (11723789_a_at) / RFU FAM26E (11764081_at) / Fold change /veh FAM26E (11764081_at) / RFU ISYNA1 (11749810_s_at) / Fold change /veh ISYNA1 (11749810_s_at) / RFU ACY1 (11761880_at) / Fold change /veh ACY1 (11761880_at) / RFU 11764098_at / Fold change /veh 11764098_at / RFU SAMD14 (11745864_x_at) / Fold change /veh SAMD14 (11745864_x_at) / RFU NPB (11741838_a_at) / Fold change /veh NPB (11741838_a_at) / RFU TMPRSS6 (11731388_a_at) / Fold change /veh TMPRSS6 (11731388_a_at) / RFU KRTAP10-2 (11738614_at) / Fold change /veh KRTAP10-2 (11738614_at) / RFU ARHGAP8 /// PRR5-ARHGAP8 (11727945_x_at) / Fold change /veh ARHGAP8 /// PRR5-ARHGAP8 (11727945_x_at) / RFU KRTAP5-7 /// NADSYN1 (11734609_at) / Fold change /veh KRTAP5-7 /// NADSYN1 (11734609_at) / RFU RASL12 (11751679_a_at) / Fold change /veh RASL12 (11751679_a_at) / RFU CDKN2B (11736163_a_at) / Fold change /veh CDKN2B (11736163_a_at) / RFU PRF1 (11729649_at) / Fold change /veh PRF1 (11729649_at) / RFU, ZNF638 /// ZNF638-IT1 / Fold change vs veh, ZNF638 /// ZNF638-IT1 / RFU, PANK3 / Fold change vs veh, PANK3 / RFU, SH3YL1 / Fold change vs veh, SH3YL1 / RFU, ZEB2 / Fold change vs veh, ZEB2 / RFU, NRIP1 / Fold change vs veh, NRIP1 / RFU, PTTG1IP / Fold change vs veh, PTTG1IP / RFU, CAPN2 / Fold change vs veh, CAPN2 / RFU, MED14 / Fold change vs veh, MED14 / RFU, SNORA58 / Fold change vs veh, SNORA58 / RFU, C1orf63 / Fold change vs veh, C1orf63 / RFU, LRRFIP1 / Fold change vs veh, LRRFIP1 / RFU, NDUFAF7 / Fold change vs veh, NDUFAF7 / RFU, SLC12A2 / Fold change vs veh, SLC12A2 / RFU, IBTK / Fold change vs veh, IBTK / RFU, ESF1 / Fold change vs veh, ESF1 / Fold change vs veh, TMEM50B / RFU, TAOK1 / Fold change vs veh, TAOK1 / RFU, ACBD3 / Fold change vs veh, ACBD3 / RFU, TMA16 / Fold change vs veh, TMA16 / RFU, RWDD3 / Fold change vs veh, RWDD3 / RFU, BCAT1 / Fold change vs veh, BCAT1 / RFU, EDEM3 / Fold change vs veh, EDEM3 / RFU, TMEM33 / Fold change vs veh, TMEM33 / RFU, WDR75 / Fold change vs veh, WDR75 / RFU, AHCTF1 / Fold change vs veh, AHCTF1 / RFU, TFRC / Fold change vs veh, TFRC / RFU, ZDHHC17 / Fold change vs veh, ZDHHC17 / RFU, NOM1 / Fold change vs veh, NOM1 / RFU, ARL8B / Fold change vs veh, ARL8B / RFU, ZBTB11 / Fold change vs veh, ZBTB11 / RFU, TAMM41 / Fold change vs veh, TAMM41 / RFU, KIAA1704 /// LOC100996395 / Fold change vs veh, KIAA1704 /// LOC100996395 / RFU, ING1 / Fold change vs veh, ING1 / RFU, TRMT61B / Fold change vs veh, TRMT61B / RFU, FUBP3 / Fold change vs veh, FUBP3 / RFU, TP53 / Fold change vs veh, TP53 / RFU, TNKS2 / Fold change vs veh, TNKS2 / RFU, ZFP14 / Fold change vs veh, ZFP14 / RFU, ACTR2 / Fold change vs veh, ACTR2 / RFU, PPP3R1 / Fold change vs veh, PPP3R1 / RFU, PIK3R1 / Fold change vs veh, PIK3R1 / RFU, HNRNPA1 / Fold change vs veh, HNRNPA1 / RFU, RNF170 / Fold change vs veh, RNF170 / RFU, ZNF28 / Fold change vs veh, ZNF28 / RFU, RNGTT / Fold change vs veh, RNGTT / RFU, OGT / Fold change vs veh, OGT / RFU, BRD1 / Fold change vs veh, BRD1 / RFU, MARS / Fold change vs veh, MARS / RFU, ZNF655 / Fold change vs veh, ZNF655 / RFU, FAHD1 / Fold change vs veh, FAHD1 / RFU, BDP1 / Fold change vs veh, BDP1 / RFU, LRRCC1 / Fold change vs veh, LRRCC1 / RFU, ARID1A / Fold change vs veh, ARID1A / RFU, ZNF146 / Fold change vs veh, ZNF146 / RFU, ZNF330 / Fold change vs veh, ZNF330 / RFU, GPN3 / Fold change vs veh, GPN3 / RFU, C9orf123 / Fold change vs veh, C9orf123 / RFU, N4BP2L2 / Fold change vs veh, N4BP2L2 / RFU, ARFIP1 / Fold change vs veh, ARFIP1 / RFU, FAM179B / Fold change vs veh, FAM179B / RFU, BCL10 / Fold change vs veh, BCL10 / RFU, UHRF1BP1L / Fold change vs veh, UHRF1BP1L / RFU, BET1 / Fold change vs veh, BET1 / RFU, CNOT2 / Fold change vs veh, CNOT2 / RFU, ZNF268 / Fold change vs veh, ZNF268 / Fold change vs veh, ZNF507 / RFU, DGCR2 / Fold change vs veh, DGCR2 / RFU, WDSUB1 / Fold change vs veh, WDSUB1 / Fold change vs veh, HSP90B1 /// MIR3652 / RFU, ADSS / Fold change vs veh, ADSS / RFU, GK / Fold change vs veh, GK / RFU, ZNF148 / Fold change vs veh, ZNF148 / RFU, TAF9 / Fold change vs veh, TAF9 / RFU, SLC1A5 / Fold change vs veh, SLC1A5 / RFU, SLMO2 / Fold change vs veh, SLMO2 / RFU, ABCC4 / Fold change vs veh, ABCC4 / RFU, LOC101060439 /// RAP1B / Fold change vs veh, LOC101060439 /// RAP1B / RFU, RFX7 / Fold change vs veh, RFX7 / RFU, GTPBP10 / Fold change vs veh, GTPBP10 / RFU, CNEP1R1 / Fold change vs veh, CNEP1R1 / RFU, BIVM-ERCC5 /// ERCC5 / Fold change vs veh, BIVM-ERCC5 /// ERCC5 / RFU, ILF3 / Fold change vs veh, ILF3 / RFU 11762660_at / Fold change /veh 11762660_at / RFU VCAN (11757783_s_at) / Fold change /veh VCAN (11757783_s_at) / RFU DDX43 (11728927_at) / Fold change /veh DDX43 (11728927_at) / RFU KRT8 (11758188_x_at) / Fold change /veh KRT8 (11758188_x_at) / RFU NKD1 (11759106_at) / Fold change /veh NKD1 (11759106_at) / RFU SRD5A1 (11742802_a_at) / Fold change /veh SRD5A1 (11742802_a_at) / RFU TPSAB1 /// TPSB2 (11721975_s_at) / Fold change /veh TPSAB1 /// TPSB2 (11721975_s_at) / RFU GSTM3 (11746129_a_at) / Fold change /veh GSTM3 (11746129_a_at) / RFU IL23R (11737362_x_at) / Fold change /veh IL23R (11737362_x_at) / RFU TMEM51 (11727254_a_at) / Fold change /veh TMEM51 (11727254_a_at) / RFU PIWIL2 (11732686_x_at) / Fold change /veh PIWIL2 (11732686_x_at) / RFU ORM1 (11744905_x_at) / Fold change /veh ORM1 (11744905_x_at) / RFU CCDC152 (11743942_at) / Fold change /veh CCDC152 (11743942_at) / RFU ECM1 (11717891_a_at) / Fold change /veh ECM1 (11717891_a_at) / RFU IL23R (11748794_a_at) / Fold change /veh IL23R (11748794_a_at) / RFU TNFAIP8L3 (11732012_x_at) / Fold change /veh TNFAIP8L3 (11732012_x_at) / RFU MBOAT4 (11741988_at) / Fold change /veh MBOAT4 (11741988_at) / RFU 11764193_at / Fold change /veh 11764193_at / RFU TMEM53 (11763286_at) / Fold change /veh TMEM53 (11763286_at) / RFU MAGEB2 (11727129_at) / Fold change /veh MAGEB2 (11727129_at) / RFU TMEM200A (11744735_a_at) / Fold change /veh TMEM200A (11744735_a_at) / RFU CCDC152 (11751479_a_at) / Fold change /veh CCDC152 (11751479_a_at) / RFU FAM211A (11726209_a_at) / Fold change /veh FAM211A (11726209_a_at) / RFU RGS16 (11746705_a_at) / Fold change /veh RGS16 (11746705_a_at) / RFU VCAN (11755009_s_at) / Fold change /veh VCAN (11755009_s_at) / RFU RHOB (11743442_s_at) / Fold change /veh RHOB (11743442_s_at) / RFU RGS16 (11720943_a_at) / Fold change /veh RGS16 (11720943_a_at) / RFU RGS16 (11720944_at) / Fold change /veh RGS16 (11720944_at) / RFU, VPS4B / Fold change vs veh, VPS4B / RFU, CREB1 / Fold change vs veh, CREB1 / RFU, DNAJC13 / Fold change vs veh, DNAJC13 / RFU, GNAQ / Fold change vs veh, GNAQ / RFU, CDK5R1 / Fold change vs veh, CDK5R1 / RFU, ZRANB3 / Fold change vs veh, ZRANB3 / RFU, CUL4A / Fold change vs veh, CUL4A / RFU, CCNY / Fold change vs veh, CCNY / RFU, UFL1 / Fold change vs veh, UFL1 / RFU, COG3 / Fold change vs veh, COG3 / RFU, DIAPH2 / Fold change vs veh, DIAPH2 / RFU, SKA2 / Fold change vs veh, SKA2 / RFU, AFF3 / Fold change vs veh, AFF3 / RFU, LMF1 / Fold change vs veh, LMF1 / RFU, IPO11 / Fold change vs veh, IPO11 / RFU, DFFB / Fold change vs veh, DFFB / RFU, FOXP1 / Fold change vs veh, FOXP1 / RFU, CARD8 / Fold change vs veh, CARD8 / RFU, STRN3 / Fold change vs veh, STRN3 / RFU, ADK / Fold change vs veh, ADK / RFU, RASSF2 / Fold change vs veh, RASSF2 / RFU, WIPF1 / Fold change vs veh, WIPF1 / RFU, LARP1B / Fold change vs veh, LARP1B / RFU, RASA1 / Fold change vs veh, RASA1 / RFU, RB1 / Fold change vs veh, RB1 / RFU, PPFIA1 / Fold change vs veh, PPFIA1 / RFU, MAT2A / Fold change vs veh, MAT2A / RFU, CCT5 / Fold change vs veh, CCT5 / RFU, WDR92 / Fold change vs veh, WDR92 / RFU, CUX1 / Fold change vs veh, CUX1 / RFU, TTC7A / Fold change vs veh, TTC7A / RFU, TMEM135 / Fold change vs veh, TMEM135 / RFU, DEPTOR / Fold change vs veh, DEPTOR / RFU, CPM / Fold change vs veh, CPM / RFU, DNAJB6 / Fold change vs veh, DNAJB6 / RFU, CACNA2D3 / Fold change vs veh, CACNA2D3 / RFU, DTX4 / Fold change vs veh, DTX4 / RFU, TFCP2 / Fold change vs veh, TFCP2 / RFU, GMCL1 /// GMCL1P1 / Fold change vs veh, GMCL1 /// GMCL1P1 / RFU, AEBP2 / Fold change vs veh, AEBP2 / RFU, SNHG1 /// SNORD22 /// SNORD25 /// SNORD26 /// SNORD27 /// SNORD28 /// SNORD29 /// SNORD31 / Fold change vs veh, SNHG1 /// SNORD22 /// SNORD25 /// SNORD26 /// SNORD27 /// SNORD28 /// SNORD29 /// SNORD31 / Fold change (Aza/veh), C12orf56 (ProbeSet 11735607_a_at) / Fold change (ACY-1035/veh), C12orf56 (ProbeSet 11735607_a_at) / Fold change (Aza/veh), FGFR1OP (ProbeSet 11751329_s_at) / Fold change (ACY-1035/veh), FGFR1OP (ProbeSet 11751329_s_at) / Fold change (Aza/veh), VPS36 (ProbeSet 11739960_a_at) / Fold change (ACY-1035/veh), VPS36 (ProbeSet 11739960_a_at) / RFU SYPL1 (11715823_x_at) / Fold change /veh SYPL1 (11715823_x_at) / RFU IGFBP7 (11715501_s_at) / Fold change /veh IGFBP7 (11715501_s_at) / RFU REEP3 (11722064_at) / Fold change /veh REEP3 (11722064_at) / RFU IGLL1 (11728026_x_at) / Fold change /veh IGLL1 (11728026_x_at): dose or concentration left out as unconfirmed
Conditions: ProbeSet 11717876_a_at; LIST D

Q: For `Nc1ccc(-c2cccs2)cc1NC(=O)c1ccc2c(c1)cc(C1CC1)n2CCN1CCOCC1` [ACY-1035], which “RFU, PPFIA1” value is on record?
A: 30.94 RFU
